The record followed here is patent publication US11351221B2, “SMAC mimetic” (Medivir AB, priority 2009, dated 2022).

In one data set the target is T1, XIAP (Homo sapiens, UniProt P98170).
T1 construct: endogenous in cells; host or cells: MDA-MB-231 (ATCC), soluble hypotonic lysate
Put plainly: Caspase-3 derepression assay. The format is biochemical. To be noted: MDA-MB-231 hypotonic lysate activated with cytochrome c and dATP; zDEVD-R110(2) substrate. As to the method: Cell pellet was washed one time by resuspending in 5 mL hypotonic lysis buffer (20 mM HEPES, pH7.5, 10 mM KCl, 1.5 mM MgCl2, 1.0 mM EDTA, 1.0 mM DTT) and recollected by centrifugation. Pellet was next resuspended in 1 volume of hypotonic lysis buffer supplemented with a complete protease inhibitor tablet (Roche) and allowed to swell on ice for 30 minutes. Cells were disrupted by approximately 50 passages through a 27 gauge needle. Lysis was monitored by light microscopy. Lysate was centrifuged at 12000×g for 10 minutes at 4° C. to remove membrane fraction, unlysed cells and debris. The soluble fraction was collected for protein concentration determination and subsequent assay analysis.
The hypotonic lysate (25 μg protein), 50 μg/mL cytochrome c and 10 mM dATP were combined in a microcentrifuge tube to a final volume of 9 μl in hypotonic lysis buffer followed by addition of test compound and incubated for 30 minutes at room temp. Following incubation 50 μl of hypotonic lysis buffer containing 5 μM of pro-fluorescent rhodamine-110(2) based caspase-3 substrate zDEVD-R110(2) was added and fluorescence intensity was monitored over time. Activation of the lysate by addition of cytochrome c and dATP results in apoptosome formation and subsequent activation of caspases-9 and -3.

For the next data set, the target named is T2, cIAP-2 (Homo sapiens, UniProt Q13489).
T2 construct: expressed in transfected cells; host or cells: A375 (A375Gc2)
T2 sequence (Q13489 whole entry, species assumed): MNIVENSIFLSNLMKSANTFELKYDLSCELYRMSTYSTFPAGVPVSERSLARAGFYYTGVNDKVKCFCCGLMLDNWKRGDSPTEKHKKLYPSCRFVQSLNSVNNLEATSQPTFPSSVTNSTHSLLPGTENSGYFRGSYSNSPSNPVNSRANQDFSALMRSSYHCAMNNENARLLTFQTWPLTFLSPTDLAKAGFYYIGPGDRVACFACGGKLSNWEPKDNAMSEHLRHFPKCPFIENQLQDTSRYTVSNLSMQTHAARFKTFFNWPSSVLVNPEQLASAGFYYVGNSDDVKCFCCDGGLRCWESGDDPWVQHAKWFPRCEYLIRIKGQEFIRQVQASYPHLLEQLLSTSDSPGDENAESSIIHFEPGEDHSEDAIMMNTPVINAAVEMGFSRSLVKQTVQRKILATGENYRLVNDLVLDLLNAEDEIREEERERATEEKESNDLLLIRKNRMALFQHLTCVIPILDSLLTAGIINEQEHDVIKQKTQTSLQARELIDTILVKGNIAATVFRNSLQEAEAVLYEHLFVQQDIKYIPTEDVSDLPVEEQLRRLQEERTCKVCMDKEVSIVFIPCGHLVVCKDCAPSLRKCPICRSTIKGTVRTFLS
The experiment in a line: cIAP degradation assay (GFP-cIAP-2). The format is cell-based. To be noted: A375Gc2 cells, 2 h treatment, 50% of GFP signal inhibited (FACS); read-out: GFP-cIAP-2 IC50. As to the method: (§1) The concentration inducing degradation of cIAP-1 and cIAP-2 by 50% (IC50) for various compounds was determined by monitoring the disappearance of Green Fluorescent Protein (GFP)-signal in A375 cells. Briefly, A375 cell lines expressing GFP-tagged cIAP-1 and cIAP-2 were generated by transfecting HA2xEGFP-pcDNA3 vector containing either cIAP-1 (A375Gc1) or cIAP-2 (A375Gc2) coding region. 2×10^4 of A375Gc1 or A375Gc2 cells were grown in 96-well plate and treated with various concentrations of test compounds for 2 h. After incubation, cells were collected by trypsinization and suspended in 150 μl of DMEM-10% FBS. A total of 10^4 cells were analyzed using a FACScan (Becton Dickinson). GFP fluorescence was monitored by using an excitation filter at 488 nm and emission was measured with a 530 nm filter. IC50 is defined as the concentration of drug at which 50% of GFP signal was inhibited.

The test system of data set [1] is SKOV-3 ovarian tumor cell. Put plainly: SKOV-3 cytotoxicity (MTT assay). To be noted: Homo sapiens, SK-OV-3 cells, 72 hrs, concentration giving 50% cell survival. The class given is cell-based. As to the method: SKOV-3 ovarian tumor cell cytotoxicity data were generated substantially as follows. The MTT (3-(4,5-Dimethylthiazol-2-yl)-2,5-diphenyltetrazolium bromide) assay is an example of an assay that has been used for measuring cell growth as previously described (Hansen, M. B., Nielsen, S. E., and Berg, K. (1989) J. Immunol Methods 119, 203-210) and incorporated herein by reference in its entirety. Briefly, SK-OV-3 cells were seeded in 96-well plates in McCoy's medium containing 10% fetal bovine serum albumin (5,000 per well) and incubated overnight at 37° C. The next day, test compounds were added at various concentrations (0.003-10 μM) and the plates were incubated at 37° C. for an additional 72 hrs. This incubation time was optimal for measuring inhibitory effects of different analogs. Fifty microliters of 5 mg/mL MTT reagent to each well was added and the plates were incubated at 37° C. for 3 hours. At the end of the incubation period, 50 microliters of DMSO was added to each well to dissolve cells and the optical density (OD) of the wells was measured using a microplate reader (Victor^2 1420, Wallac, Finland) at 535 nm. Cell survival (CS) was calculated by the following equation: CS=(OD treated well/mean OD control wells)×100%
The CC50, defined as the drug concentration that results in 50% CS, was derived by calculating the point where the dose-response curve crosses the 50% CS point using GraphPad Prism.
(Formazan colour is commonly taken as a measure of viable cells.)

The next data set has as its target T3, cIAP-1 (Homo sapiens, UniProt Q13490).
T3 construct: expressed in transfected cells; host or cells: A375 (A375Gc1)
Put plainly: cIAP degradation assay (GFP-cIAP-1). The class given is cell-based. Conditions: for DC50: A375Gc1 cells, 2 h treatment, 50% of GFP signal inhibited (FACS), read-out: GFP-cIAP-1 IC50; for IC50 Ratio cIAP-2/cIAP-1: ratio of GFP-cIAP-2 to GFP-cIAP-1 degradation IC50. As to the method:
as §1, with “Briefly,” for “The concentration inducing degradation of cIAP-1 and cIAP-2 by 50% (IC50) for various compounds was determined by monitoring the disappearance of Green Fluorescent Protein (GFP)-signal in A375 cells. Briefly,”, “filter.” for “filter. IC50 is defined as the concentration of drug at which 50% of GFP signal was inhibited.”

Data set [2] is classed as in vivo. The source says: Body weight loss (BWL), mortality and additional toxicity data were generated substantially as follows. […] Body weights were taken on day 4 and are shown as percent change from day 1.
For data set [3], the system named is MDA-MB-231 human breast tumor cells. Put plainly: MDA-MB-231 xenograft tumor growth delay. The format is in vivo, female nude mice. Conditions: for Long-term survivors / Partial tumor regression / T−C value (tumor growth delay): q3dx5. As to the method:
MDA-MB-231 xenograft data were generated substantially as follows. MDA-MB-231 human breast tumor cells were injected into the mammary fat pad of female nude mice and dosing initiated twelve days later at an average tumor volume of approximately 148 mm^3. No tumor burden was associated with this model based on lack of weight loss or animal morbidity in control groups. Mice were injected subcutaneously into the mammary fat pad with 1×10^7 cells suspended in 200 μl of a 1:1 HBSS: Matrigel solution; injected cells were within nine passages of the original lot. Pre-study tumor volumes were recorded beginning approximately one week prior to the estimated start date. When tumors reached approximately 150 mm^3 animals are matched by tumor volume into treatment and control groups and dosing initiated (Day 0); mice are tagged and followed individually throughout the experiment. Animals were dosed by weight (0.01 mL per gram; 10 ml/Kg).
Beginning on Day 0, animals were observed daily and weighed twice weekly using a digital scale (Ohaus SP601); data including individual and mean gram weights (Mean We±SD), mean percent weight change versus Day 0 (% vD0) and mean percent weight change versus prior measurement (% vD−x) were recorded for each group and plotted at study completion.
Beginning on Day 0, tumor dimensions were measured twice weekly by digital caliper (Fowler Ultra-Cal IV) and data including individual and mean estimated tumor volumes (Mean TV±SEM) recorded for each group; tumor volume was calculated using the formula: TV=width^2×length×0.52. Individual mice reaching the designated study endpoint (an estimated tumor volume of approximately 1 cm^3) were assigned a time to endpoint (TTE) value corresponding to that day; the tumor growth delay (TGD) study was concluded once all mice reach the study endpoint or sixty days following study initiation. At study completion, TGD and % TGD are calculated using the median TTE (MTTE) value for each treatment (T) group versus control (C) by the formulas: TGD(days)=T−C and % TGD=T−C/C×100, wherein T−C is the difference between MTTE-Treatment Group and MTTE-Control. Tumored animals not reaching the designated volume endpoint by study completion are considered long-term survivors (LTS) and assigned a TTE value corresponding to the final study day; tumor-free animals are not included in TGD calculations. A Log-rank test is used to determine statistically significant differences in overall survival experience between each treated group compared to control. Individual mice reporting a tumor volume ≤50% of the Day 0 measurement for two consecutive measurements over a seven day period were considered partial responders (PR). If the PR persisted until study completion, percent tumor regression (% TR) was determined using the formula: % TR=1−Tf/Ti×100; a mean value was calculated if multiple PR mice occurred in one group. Individual mice lacking palpable tumors (<4×4 mm^2 for two consecutive measurements over a seven day period) were classified as complete responders (CR); a CR that persisted until study completion was considered a tumor-free survivor (TFS); TFS animals are excluded from TGD calculations and statistical analysis. Statistical differences in MTTE values between control and treatment groups are compared using a Log Rank test.

Each structure is given as a SMILES string.

T1 sequence (P98170 whole entry): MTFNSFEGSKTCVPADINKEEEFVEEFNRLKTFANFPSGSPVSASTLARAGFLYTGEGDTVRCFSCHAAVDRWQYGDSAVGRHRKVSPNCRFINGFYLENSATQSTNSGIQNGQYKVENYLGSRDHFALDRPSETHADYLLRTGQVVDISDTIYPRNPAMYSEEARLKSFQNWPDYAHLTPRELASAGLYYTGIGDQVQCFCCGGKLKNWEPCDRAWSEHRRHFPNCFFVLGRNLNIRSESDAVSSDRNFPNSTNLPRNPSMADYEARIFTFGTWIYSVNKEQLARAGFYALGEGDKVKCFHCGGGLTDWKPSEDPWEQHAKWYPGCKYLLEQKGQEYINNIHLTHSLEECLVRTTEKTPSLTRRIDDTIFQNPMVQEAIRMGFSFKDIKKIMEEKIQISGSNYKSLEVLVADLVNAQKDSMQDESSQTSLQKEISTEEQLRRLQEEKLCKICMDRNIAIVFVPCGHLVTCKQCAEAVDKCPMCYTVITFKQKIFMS
T3 sequence (Q13490 whole entry, species assumed): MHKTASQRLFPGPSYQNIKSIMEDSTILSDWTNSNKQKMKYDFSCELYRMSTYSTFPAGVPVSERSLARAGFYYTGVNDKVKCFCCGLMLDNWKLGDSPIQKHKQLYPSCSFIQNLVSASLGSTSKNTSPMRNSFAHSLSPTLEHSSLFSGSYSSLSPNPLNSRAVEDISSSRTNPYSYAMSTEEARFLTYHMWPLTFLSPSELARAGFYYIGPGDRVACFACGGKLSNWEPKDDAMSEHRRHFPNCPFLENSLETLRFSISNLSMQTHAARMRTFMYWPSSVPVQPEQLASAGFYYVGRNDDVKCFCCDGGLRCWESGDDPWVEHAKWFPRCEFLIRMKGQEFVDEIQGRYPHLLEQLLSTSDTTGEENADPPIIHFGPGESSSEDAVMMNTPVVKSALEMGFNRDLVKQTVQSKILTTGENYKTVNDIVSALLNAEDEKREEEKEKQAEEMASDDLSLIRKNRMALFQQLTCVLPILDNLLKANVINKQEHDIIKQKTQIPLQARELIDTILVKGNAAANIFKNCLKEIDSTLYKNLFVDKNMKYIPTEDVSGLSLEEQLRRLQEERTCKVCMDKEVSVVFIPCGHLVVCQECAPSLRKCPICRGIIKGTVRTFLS

In general, IC50 refers to the concentration that gives 50% inhibition. Lower therefore signals greater potency in that assay. Usually CC50 stands for the concentration that lowers cell viability or growth by half. On XIAP, `CN[C@@H](C)C(=O)N[C@H](C(=O)N1C[C@@H](O)C[C@H]1Cc1c(-c2[nH]c3cc(F)ccc3c2C[C@@H]2C[C@H](O)CN2C(=O)[C@@H](NC(=O)[C@H](C)NC)C(C)C)[nH]c2cc(F)ccc12)C(C)C` [Compound 2] yielded a 50% inhibitory concentration (IC50) of 13.4 nM. Moreover, the DC50 on cIAP-2 came out at 7 nM. This molecule also yielded a CC50 in data set [1] of 0.5 nM. Further, at cIAP-1, the DC50 worked out at 4 nM and the “IC50 Ratio cIAP-2/cIAP-1” value is 1.8.
`CN[C@@H](C)C(=O)N[C@H](C(=O)N1C[C@@H](O)C[C@H]1Cc1c(-c2[nH]c3cc(F)ccc3c2C[C@@H]2C[C@H](O)CN2C(=O)[C@@H](NC(=O)[C@H](C)NC)[C@@H](C)O)[nH]c2cc(F)ccc12)[C@@H](C)O` [Compound 3] gave an IC50 against XIAP of 0.2 nM. Also, on cIAP-2, the DC50 is 674 nM. Besides, the CC50 in data set [1] turned out to be 13 nM. Further, on cIAP-1, the DC50 came to 328 nM and the “IC50 Ratio cIAP-2/cIAP-1” value is listed as 2.1.
With `CN[C@@H](C)C(=O)N[C@H](C(=O)N1C[C@@H](O)C[C@H]1Cc1c(-c2[nH]c3cc(F)ccc3c2C[C@@H]2C[C@H](O)CN2C(=O)[C@@H](NC(=O)[C@H](C)NC)[C@H](C)O)[nH]c2cc(F)ccc12)[C@H](C)O` [Compound 4], the IC50 against XIAP stood at 0.35 nM. The DC50 at cIAP-2 worked out at 604 nM. Also, the Mortality entry in data set [2] (rat, 3 mg/Kg, QDx4 i.v. bolus) is reported as “caused the animals to die”. Further, in data set [2] (rat, in vivo, 1 mg/kg/day), the “Bone marrow hypocellularity of the erythroid series (anatomic pathology)” value was “marked to severe”; the “Hypercellularity of the myeloid series (anatomic pathology)” value was “mild to moderate”; the “Hypertrophy and hyperplasia of megakaryocytes (anatomic pathology)” value was “mild to moderate”; the “Type 2 pneumocyte hypertrophy/hyperplasia in the lungs (anatomic pathology)” value was “mild to moderate”. Also, the Clinical signs result in data set [2] (rat, in vivo, iv, 1 mg/kg/day) was “lethargy, increased/irregular respiration and increased heart rate”. The molecule further had a CC50 in data set [1] of 2 nM. Moreover, on cIAP-1, the DC50 came out at 464 nM and the “IC50 Ratio cIAP-2/cIAP-1” value is on record as 1.3.
As for `CC[C@H](NC(=O)[C@H](C)NC)C(=O)N1C[C@@H](O)C[C@H]1Cc1c(-c2[nH]c3cc(F)ccc3c2C[C@@H]2C[C@H](O)CN2C(=O)[C@H](CC)NC(=O)[C@H](C)NC)[nH]c2cc(F)ccc12` [Compound 15, N-{1S-[2R-(6,6′-Difluoro-3′-{4S-hydroxy-1-[2S-(2S-methylamino-propionylamino)-butyryl]-pyrrolidin-2R-ylmethyl}-1H,1′H-[2,2′]biindolyl-3-ylmethyl)-4S-hydroxy-pyrrolidine-1-carbonyl]-propyl}-2S-methylamino-propionamide], on cIAP-2, the DC50 came out at 174 nM. Further, in data set [3] (20 mg/Kg i.p.), the Long-term survivors was 6/10, the Partial tumor regression result is listed as “three” and the “T−C value (tumor growth delay)” value was 22 days. In data set [3] (40 mg/Kg i.p.), the Long-term survivors was 9/10, the Partial tumor regression entry is “three” and the “T−C value (tumor growth delay)” value turned out to be 22 days. In data set [3] (60 mg/Kg i.p.), the Long-term survivors is listed as 8/10, the Partial tumor regression entry is listed as “seven” and the “T−C value (tumor growth delay)” value came out at 22 days. The Minimal effective dose result in data set [3] (MDA-MB-231 xenograft model, subsequent studies) was “less than 1 mg/Kg”. Besides, the “Tolerability in the rat as compared to Compounds 4 and 5, dose per dose” value in data set [2] (Sprague-Dawley, in vivo, iv, 4 days) is “approximately 5 fold”. In data set [1], it took 0.14 nM to reach half-maximal cytotoxicity (CC50).
